Data from patent publication US10894777B2, “TG2 inhibitor piperazine compounds and uses thereof” (UNIVERSITY OF OTTAWA, priority 2016, dated 2021).

Legend:
TG2 [1] = target: T1, TG2 (Homo sapiens, UniProt P21980); experiment: Colorimetric transamidase activity assay (AL5 substrate), hTG2; type: biochemical; details: for kinact/KI: read-out: kinact/KI (10^3M^−1 min^−1); for enzyme inactivation, relative observed rate constants (kobs): high concentration of inhibitor (18 μM, FIG. 43)
T1 sequence (P21980 1-687): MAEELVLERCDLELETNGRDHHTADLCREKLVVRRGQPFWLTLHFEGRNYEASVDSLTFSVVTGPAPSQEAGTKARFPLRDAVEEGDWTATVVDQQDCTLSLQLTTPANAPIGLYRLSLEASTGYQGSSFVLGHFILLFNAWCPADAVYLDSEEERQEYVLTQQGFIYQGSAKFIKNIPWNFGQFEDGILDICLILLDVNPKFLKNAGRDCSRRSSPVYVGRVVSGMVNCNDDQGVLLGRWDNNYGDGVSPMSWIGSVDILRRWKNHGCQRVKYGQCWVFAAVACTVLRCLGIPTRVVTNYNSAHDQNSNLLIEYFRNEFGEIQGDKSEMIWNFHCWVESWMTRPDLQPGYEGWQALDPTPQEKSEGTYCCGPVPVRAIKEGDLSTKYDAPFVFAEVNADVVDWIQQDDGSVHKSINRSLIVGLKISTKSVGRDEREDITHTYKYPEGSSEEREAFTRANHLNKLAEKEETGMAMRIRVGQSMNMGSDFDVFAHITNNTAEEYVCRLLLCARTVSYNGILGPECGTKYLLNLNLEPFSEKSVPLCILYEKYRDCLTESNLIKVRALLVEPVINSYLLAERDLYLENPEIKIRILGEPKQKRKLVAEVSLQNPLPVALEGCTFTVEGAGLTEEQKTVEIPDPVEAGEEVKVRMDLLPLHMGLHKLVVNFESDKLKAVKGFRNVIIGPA
Experimental: In Vitro Assays. Colorimetric transamidase activity assay. The activities of hTG1, hTG2 and hTG6 were measured via a colorimetric assay using the chromogenic substrate Cbz-Glu(γ-p-nitrophenyl ester)Gly (AL5). The assay was conducted at 25° C. in 100 mM MOPS buffer (pH 6.5) containing 3.0 mM CaCl2 and 50 μM EDTA. […] A stock solution of AL5 was prepared in DMSO such that the final concentration of this co-solvent was constant at 2.5% v/v. Stock solutions of the inhibitors were made in the buffer system previously described. The reaction was initiated with the addition of 40-60 mU/mL of the respective enzyme (0.10 μM hTG1, 0.25 μM hTG2 or 0.32 μM hTG6). Product formation was monitored at 405 nm in a polystyrene 96-well microplate using a BioTek Synergy 4 plate reader. […] Observed first-order rate constants of inactivation (kobs) were determined from non-linear regression fit to a mono-exponential model (Equation 1) of the observed absorbance of the enzymatic hydrolysis product, p-nitrophenolate (pNP). […] Experiments were done in triplicate and variation between repeats was less than 30%.

TG2 [2] = target: T1, TG2; experiment: Kinetic inactivation of purified recombinant human TG2, continuous spectrophotometric activity assay (Examples 3, 10); type: biochemical; design: made in house; details: Table 4; for kinact/KI: read-out: kinact/Ki (μM^−1 min^−1), for ^a no saturation observed, efficiency obtained from initial slope
Experimental: Kinetic studies were carried out in vitro, using purified recombinant human TG2 (Roy, I. et al., Protein Expr. Purif. 87: 41-46, 2013) and a direct, continuous spectrophotometric activity assay (Leblanc, A. et al., Biochemistry 40: 8335-8342, 2001).
Kinetics. Kinetic runs were performed at 25° C. in 100 mM MOPS buffer (pH 7.0) containing 3 mM CaCl2 and 50 μM EDTA. […] Stock solutions of the substrate and inhibitors were prepared in DMF such that the final concentration of this co-solvent was constant at 10% v/v. Reactions were initiated with the addition of enzyme with an activity of approximately 0.05 U/mL. Kinetic evaluation was carried out by the method of Stone and Hofsteenge (Stone, S. R. and Hofsteenge, J., Biochem. J. 230: 497-502, 1985). […] Observed first-order rate constants of inactivation were determined from non-linear regression, to a mono-exponential model. These rate constants were in turn fit to equation 1 by non-linear regression, providing the kinetic parameters
Kinetic parameters were determined as described above.

[3] = Table 8, read-out: kinact (converted)
[4] = Table 5, read-out: kinact (converted)
[5] = Table 7, read-out: kinact (converted)

kinact (TG2 [2]) [s⁻¹] | kinact/KI (TG2 [2]) [M⁻¹ s⁻¹] | melting point [°C] | kinact (TG2 [1]; [5]) [s⁻¹] | kinact/KI (TG2 [1]; Table 7) [M⁻¹ s⁻¹] | SMILES | also measured
0.0202 | 4000 |  |  |  | C=CC(=O)NCCCC[C@H](NC(=O)OCc1ccccc1)C(=O)N1CCN(C(=O)c2ccc3ccccc3c2)CC1 [AA10, (S)-benzyl(1-(4-(2-naphthoyl)piperazin-1-yl)-6-acrylamido-1-oxohexan-2-yl)carbamate] | kinact (TG2 [1]; [3]): 0.0202 s⁻¹; kinact/KI (TG2 [1]; Table 8): 1500 M⁻¹ s⁻¹
 | 883 | 54 to 56 |  |  | C=CC(=O)NCCCC[C@H](NC(=O)OCc1ccccc1)C(=O)NCCCCNS(=O)(=O)c1cccc2c(N(C)C)cccc12 [Compound 109, (S)-benzyl (6-acrylamido-1-((4-(5-(dimethylamino)naphthalene-1-sulfonamido)butyl)amino)-1-oxohexan-2-yl)carbamate] | kinact (TG2 [1]; [4]): 0.0365 s⁻¹; kinact/KI (TG2 [1]; Table 5): 1350 M⁻¹ s⁻¹
 | 783 | 65 to 67 |  |  | C=CC(=O)NCCCC[C@H](NC(=O)OCc1ccccc1)C(=O)NCCCNS(=O)(=O)c1cccc2c(N(C)C)cccc12 [Compound 110, (S)-benzyl (6-acrylamido-1-((3-(5-(dimethylamino)naphthalene-1-sulfonamido)propyl)amino)-1-oxohexan-2-yl)carbamate] | kinact (TG2 [1]; [4]): 0.0142 s⁻¹; kinact/KI (TG2 [1]; Table 5): 460 M⁻¹ s⁻¹
0.0242 | 1030 |  |  |  | C=CC(=O)NCCCC[C@H](NC(=O)OCc1ccccc1)C(=O)NCCNS(=O)(=O)c1cccc2c(N(C)C)cccc12 [Compound 111, (S)-benzyl (6-acrylamido-1-((2-(5-(dimethylamino)naphthalene-1-sulfonamido)ethyl)amino)-1-oxohexan-2-yl)carbamate] | kinact (TG2 [1]; [4]): 0.0242 s⁻¹; kinact/KI (TG2 [1]; Table 5): 1020 M⁻¹ s⁻¹
 |  |  |  |  | C=CC(=O)NC[C@H](NC(=O)OCc1ccccc1)C(=O)N1CCN(S(=O)(=O)c2cccc3c(N(C)C)cccc23)CC1 [Compound 115, (S)-benzyl (3-acrylamido-1-(4-((5-(dimethylamino)naphthalen-1-yl)sulfonyl)piperazin-1-yl)-1-oxopropan-2-yl)carbamate] | enzyme inactivation, relative observed rate constants (kobs) (TG2 [1]): no significant enzyme inactivation was observed
 |  |  |  |  | C=CC(=O)NCC[C@H](NC(=O)OCc1ccccc1)C(=O)N1CCN(S(=O)(=O)c2cccc3c(N(C)C)cccc23)CC1 [Compound 116, (S)-benzyl (4-acrylamido-1-(4-((5-(dimethylamino)naphthalen-1-yl)sulfonyl)piperazin-1-yl)-1-oxobutan-2-yl)carbamate] | enzyme inactivation, relative observed rate constants (kobs) (TG2 [1]): no significant enzyme inactivation was observed
0.0134 | 1480 | 69 to 70 |  |  | C=CC(=O)NCCC[C@H](NC(=O)OCc1ccccc1)C(=O)N1CCN(S(=O)(=O)c2cccc3c(N(C)C)cccc23)CC1 [Compound 117, (S)-benzyl (5-acrylamido-1-(4-((5-(dimethylamino)naphthalen-1-yl)sulfonyl)piperazin-1-yl)-1-oxopentan-2-yl)carbamate] | kinact (TG2 [1]; Table 6, read-out: kinact (converted)): 0.0197 s⁻¹; enzyme inactivation, relative observed rate constants (kobs) (TG2 [1]): reappearance of enzyme inhibition albeit only modestly; kinact/KI (TG2 [1]; Table 6): 412 M⁻¹ s⁻¹
0.0082 | 2130 | 59 to 61 | 0.0065 | 620 | C=CC(=O)NCCCC[C@H](NC(=O)OCc1ccccc1)C(=O)N1CCN(S(=O)(=O)c2cccc3ccccc23)CC1 [Compound 128, (S)-benzyl 6-acrylamido-1-(4-(naphthalen-1-ylsulfonyl)piperazin-1-yl)-1-oxohexan-2-yl-carbamate] | rate constant of inactivation relative to VA4 (TG2 [1]): more than three-fold less
0.00643 | 2500 | 65 to 66 | 0.00633 | 955 | C=CC(=O)NCCCC[C@H](NC(=O)OCc1ccccc1)C(=O)N1CCN(S(=O)(=O)c2ccc3ccccc3c2)CC1 [Compound 129, (S)-benzyl (6-acrylamido-1-(4-(naphthalen-2-ylsulfonyl)piperazin-1-yl)-1-oxohexan-2-yl)-carbamate] | 
0.0102 | 2180 |  | 0.00783 | 888 | C=CC(=O)NCCCC[C@H](NC(=O)OCc1ccccc1)C(=O)N1CCN(S(=O)(=O)c2ccccc2)CC1 [Compound 130, (S)-benzyl (6-acrylamido-1-oxo-1-(4-(phenylsulfonyl)piperazin-1-yl)hexan-2-yl)carbamate] | 
0.00907 | 1900 | 50 to 52 | 0.00783 | 582 | C=CC(=O)NCCCC[C@H](NC(=O)OCc1ccccc1)C(=O)N1CCN(S(=O)(=O)Cc2ccccc2)CC1 [Compound 131, (S)-benzyl (6-acrylamido-1-(4-(benzylsulfonyl)piperazin-1-yl)-1-oxohexan-2-yl)carbamate] | 
0.0083 | 2430 |  | 0.0115 | 1050 | C=CC(=O)NCCCC[C@H](NC(=O)OCc1ccccc1)C(=O)N1CCN(S(=O)(=O)C2CCCCC2)CC1 [Compound 132, (S)-benzyl (6-acrylamido-1-(4-(cyclohexylsulfonyl)piperazin-1-yl)-1-oxohexan-2-yl)carbamate] | 
 |  |  | 0.0237 | 657 | C=CC(=O)NCCCC[C@H](NC(=O)OCc1ccccc1)C(=O)N1CCN(S(=O)(=O)CC)CC1 [Compound 134, (S)-benzyl (6-acrylamido-1-(4-(ethylsulfonyl)piperazin-1-yl)-1-oxohexan-2-yl)carbamate] | 
0.0153 | 2730 |  | 0.00833 | 1310 | C=CC(=O)NCCCC[C@H](NC(=O)OCc1ccccc1)C(=O)N1CCN(S(C)(=O)=O)CC1 [Compound 135, (S)-benzyl(6-acrylamido-1-(4-(methylsulfonyl)piperazin-1-yl)-1-oxohexan-2-yl)carbamate] | 
 |  |  | 0.0247 | 613 | C=CC(=O)NCCCC[C@H](NC(=O)OCc1ccccc1)C(=O)N1CCN(S(=O)(=O)c2cccs2)CC1 [Compound 136, (S)-benzyl(6-acrylamido-1-oxo-1-(4-(thiophen-2-ylsulfonyl)piperazin-1-yl)hexan-2-yl)carbamate] | 
 |  |  |  |  | C=CC(=O)NCCC[C@H](NC(=O)OCc1ccccc1)C(=O)N1CCN(C(=O)c2ccccc2)CC1 [Compound 149, (S)-benzyl (5-acrylamido-1-(4-benzoylpiperazin-1-yl)-1-oxopentan-2-yl)carbamate] | kinact (TG2 [1]; [3]): 0.0795 s⁻¹; kinact/KI (TG2 [1]; Table 8): 2170 M⁻¹ s⁻¹
 |  | 48 to 49 |  |  | C=CC(=O)NCCCC[C@H](NC(=O)OCc1ccccc1)C(=O)N1CCN(C(=O)Cc2ccccc2)CC1 [Compound 150, (S)-benzyl (6-acrylamido-1-oxo-1-(4-(2-phenylacetyl)piperazin-1-yl)hexan-2-yl)carbamate] | kinact (TG2 [1]; [3]): 0.0377 s⁻¹; kinact/KI (TG2 [1]; Table 8): 1880 M⁻¹ s⁻¹
 |  |  |  |  | C=CC(=O)NCCC[C@H](NC(=O)OCc1ccccc1)C(=O)N1CCN(C(C)=O)CC1 [Compound 151, (S)-benzyl(1-(4-acetylpiperazin-1-yl)-5-acrylamido-1-oxopentan-2-yl)carbamate] | kinact (TG2 [1]; [3]): 0.0343 s⁻¹; overall inhibition efficiency compared to sulfonamide counterpart (TG2 [1]; amide (Table 8) vs sulfonamide (Table 7)): almost three times less; kinact/KI (TG2 [1]; Table 8): 615 M⁻¹ s⁻¹
 |  |  |  |  | C=CC(=O)NCCCC[C@H](NC(=O)OCc1ccccc1)C(=O)N1CCN(C(=O)c2ccccn2)CC1 [Compound 152, (S)-benzyl(6-acrylamido-1-oxo-1-(4-picolinoylpiperazin-1-yl)hexan-2-yl)carbamate] | kinact (TG2 [1]; Table 8): 0.0488 ± 0.00483 s⁻¹; kinact/KI (10^3M^−1 min^−1) (TG2 [1]; Table 8): 91.3 ± 17.9 10^3M^−1 min^−1
 |  |  |  |  | C=CC(=O)NCCCC[C@H](NC(=O)OCc1ccccc1)C(=O)N1CCN(C(=O)c2cccnc2)CC1 [Compound 153, (S)-benzyl (6-acrylamido-1-(4-nicotinoylpiperazin-1-yl)-1-oxohexan-2-yl)carbamate] | kinact (TG2 [1]; [3]): 0.024 s⁻¹; kinact/KI (TG2 [1]; Table 8): 1020 M⁻¹ s⁻¹
 |  |  |  |  | C=CC(=O)NCCCC[C@H](NC(=O)OCc1ccccc1)C(=O)N1CCN(C(=O)c2ccncc2)CC1 [Compound 154, (S)-benzyl-(6-acrylamido-1-(4-isonicotinoylpiperazin-1-yl)-1-oxohexan-2-yl)carbamate] | kinact (TG2 [1]; [3]): 0.0238 s⁻¹; kinact/KI (TG2 [1]; Table 8): 617 M⁻¹ s⁻¹
